Experimental data reported in BindingDB's records for doi:10.1021/cb600311v (University of California San Francisco, 2006).

Experiments:
[1] = biological target: T1, Thyroid hormone receptor beta (Homo sapiens, UniProt P10828); assay: Competition Binding Assay
T1 sequence (P10828 whole entry): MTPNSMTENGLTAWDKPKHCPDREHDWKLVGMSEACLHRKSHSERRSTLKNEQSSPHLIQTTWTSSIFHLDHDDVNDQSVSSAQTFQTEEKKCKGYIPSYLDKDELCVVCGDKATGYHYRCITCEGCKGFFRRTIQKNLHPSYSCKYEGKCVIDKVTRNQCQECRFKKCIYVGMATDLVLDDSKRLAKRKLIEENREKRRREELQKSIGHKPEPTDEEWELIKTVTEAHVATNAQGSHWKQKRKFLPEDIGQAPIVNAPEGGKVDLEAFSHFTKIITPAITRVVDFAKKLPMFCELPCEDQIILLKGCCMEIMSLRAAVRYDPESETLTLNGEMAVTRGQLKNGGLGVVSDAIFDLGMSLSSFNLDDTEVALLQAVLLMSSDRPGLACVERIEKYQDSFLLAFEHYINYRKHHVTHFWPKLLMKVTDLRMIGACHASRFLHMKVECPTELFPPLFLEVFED
From the text: (§1) Thyroid hormone competitive binding assay using TNT T7 quick-coupled transcription translation system from promega.

[2] = biological target: T2, Thyroid hormone receptor alpha (Homo sapiens, UniProt P10827); assay: Competition Binding Assay
T2 sequence (P10827 whole entry): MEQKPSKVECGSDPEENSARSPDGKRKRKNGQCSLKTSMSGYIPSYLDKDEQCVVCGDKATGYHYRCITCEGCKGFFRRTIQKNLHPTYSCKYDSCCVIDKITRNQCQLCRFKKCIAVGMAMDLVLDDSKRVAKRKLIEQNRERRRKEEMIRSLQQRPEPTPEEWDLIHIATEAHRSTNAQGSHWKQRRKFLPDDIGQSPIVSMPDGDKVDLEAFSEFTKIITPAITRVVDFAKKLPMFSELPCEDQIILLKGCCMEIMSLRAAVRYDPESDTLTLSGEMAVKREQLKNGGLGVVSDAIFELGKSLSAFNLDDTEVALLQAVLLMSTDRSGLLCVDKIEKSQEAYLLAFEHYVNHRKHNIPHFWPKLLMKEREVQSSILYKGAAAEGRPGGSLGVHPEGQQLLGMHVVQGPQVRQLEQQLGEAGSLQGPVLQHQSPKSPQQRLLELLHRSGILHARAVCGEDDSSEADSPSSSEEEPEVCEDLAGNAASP
From the text: as §1

[3] = biological target: T2, Thyroid hormone receptor alpha; assay: Transactivation Assay in U2OS cells
From the text: TRE-driven dual-luciferase reporter assay in human bone osteosarcoma epithelial (U2OS) cell line.

| SMILES | Kd [1] [nM] | Kd [2] [nM] | EC50 [3] [nM] |
| --- | --- | --- | --- |
| CC(C)c1cc(Oc2c(I)cc(Cc3[nH]c(=O)[nH]c3O)cc2I)ccc1O | 1.7 | 1.2 | 34 |
| Cc1cc(Cc2[nH]c(=O)[nH]c2O)cc(C)c1Oc1ccc(O)c(C(C)C)c1 [CO22] | 280 | 286 | 3870 |
